Measured values taken from US11453642B2, “Oxygenated amino- or ammonium-containing sulfonic acid, phosphonic acid and carboxylic acid derivatives and their medical use” (GRI BIO, INC., priority 2011, dated 2022).
Values joined by “and” are separate entries in the source; they are usually repeats but may differ in a detail not shown here. Identical values can stand only once. Marks after values point to notes of the source that are not given here.

Experiments:
[1] = test system: allergic contact dermatitis response in mice; assay: Allergic contact dermatitis (TDI) model in mice, mouse ear swelling test; assay type: in vivo
Procedure: The anti-inflammatory and anti-allergic effects of compounds 1a and 1c were assessed in a mouse model of allergic contact dermatitis, a response driven primarily by T helper type 2 (Th2) cells. […] In this model, an allergic dermatitis response is obtained by sensitizing mice to TDI and subsequently challenging them with antigen by topical administration onto the ears. A quantitative assessment of anti-inflammatory and anti-allergic effects of topically or orally administered test compounds is possible by measuring the resulting ear swelling. The advantages of the allergic contact dermatitis model (Zöllner et al., Bioessays 26:693-6 (2004)) are reproducibility and reliability (>90% of BALB/c mice respond to sensitization), a short induction protocol, quantitative assessment by measuring ear thickness, atopic dermatitis-like skin lesions can be induced, and clinically relevant pharmaceuticals, such as corticosteroids, calcineurin-inhibitors and PDE4-inhibitors, are effective in this model.
Female BALB/c-mice were obtained from Charles River (Sulzfeld, Germany) at age 8 weeks. All animals were housed in groups of eight per cage at 22° C. with a 12 h light/dark-cycle, Water and a standard diet (Altromin, Lage/Lippe, Germany) were available ad libitum. All animals were acclimatized for one week before experimental procedures were commenced.
Experimental procedures for BALB/c mice housing, TDI sensitization and challenge, and measurement of ear thickness were performed as previously described (Baumer et al., J Pharm Pharmacol, 55:1107-1114 (2003)) with the following modifications. For active sensitization, 100 μL of 5% (w/v) TDI was administered to the shaved and stripped abdominal epidermis on day one, and for the next three consecutive days, 50 μL of 5% (My) TDI was applied. The allergic reaction was boosted 21 days later by application of 50 μL of 0.5% (w/v) TDI. For the examination of test compound effects, the left ears were used for the TDI challenge (20 μL of 0.5% in acetone) and ear thickness measured 3 h before and 24 h after challenge.
Group size was n=7 mice unless otherwise stated. Test compounds were freshly prepared before administration.
Administration time: to determine optimal time for administration treatment groups were treated orally by gavage with 100 mg/kg of compound 1a or 1c (suspended in 0.5% tylose, 10 mL/kg) 1, 4 or 16 h before topical TDI challenge. One group was treated with 100 mg/kg miltefosine orally, 16 h before challenge (based on available data for optimal administration time for miltefosine) and vehicle treated mice received tylose (10 mL/kg) orally, 4 h before challenge.
Dose-response: two groups of mice were treated orally with compound 1a at 25 mg/kg or 100 mg/kg suspended in 0.5% tylose, 4 h before topical TDI challenge. Vehicle treated mice received 0.5% tylose orally 4 h before challenge. As a positive control, dexamethasone was administered in saline solution at 1 mg/kg or 3 mg/kg, 2 h and 30 min before challenge and 1 h after challenge. The dose and dosing scheme for dexamethasone was based on previous experience showing a maximal effect in this model.
Compound 1a was administered to two groups of mice topically in 20 μl of a 2% or 6% solution in propyleneglycol. The suspension was heated to 60° C. and mixed using a thermomixer (Eppendorf) until it became clear. The solution was applied, 2 h before topical TDI challenge by administration of 10 μl onto each of the inner and outer surfaces of the left ears. A vehicle group (17=5) was treated with propyleneglycol. As a positive control, diflorasone, diacetate was administered at 0.01% (low dose) and 0.05% (high dose) in 20 μl acetone, 2 h before challenge. A basal control group was left untreated.
Mean and standard error of the mean (SEM) were calculated from individual ear edema values. […]

RBL-2H3 cells = assay: Maximum tolerated concentration (cytotoxicity by lactate dehydrogenase release); assay type: cell-based, Rat; details: for MTC (maximum tolerated concentration): highest concentration not causing cytotoxicity (LDH release), RBL-2H3 cells; for SI (safety index): ratio between MTC and IC50
Description: The safety index (SI) of a test compound is the ratio between the maximum tolerated concentration and the IC50 and is used as a measure of the relative safety of the test compound.

[2] = administration time study, 100 mg/kg oral, 1 h before TDI challenge
[3] = administration time study, 100 mg/kg oral, 4 h before TDI challenge
[4] = administration time study, 100 mg/kg oral, 16 h before TDI challenge

Compound | Inhibition of mouse ear swelling [1, 2] | Inhibition of mouse ear swelling [1, 3] | Inhibition of mouse ear swelling [1, 4] | inhibition relative to the highest dose of dexamethasone ([1]; dose-response study, oral, versus dexamethasone 3 mg/kg) | Inhibition of mouse ear swelling ([1]; dose-response study, 25 mg/kg oral, 4 h before TDI challenge) | Inhibition of mouse ear swelling ([1]; dose-response study, 100 mg/kg oral, 4 h before TDI challenge) | toxicity at the doses used ([1]; oral 25 or 100 mg/kg) | reduction of ear swelling compared to vehicle control ([1]; topical solution at 2% or 6%) | Inhibition of mouse ear swelling ([1]; topical, 20 μl of 2% solution in propyleneglycol, 2 h before TDI challenge) | Inhibition of mouse ear swelling ([1]; topical, 20 μl of 6% solution in propyleneglycol, 2 h before TDI challenge) | MTC (maximum tolerated concentration) (RBL-2H3 cells) | SI (safety index) (RBL-2H3 cells)
CCCCCCCCCCCCCCCCN(C)CC(O)CS(=O)(=O)O (centres unmarked) [Compound 1a, 2-hydroxy-3-(N-methylhexadecylammonio)propane-sulfonate] | 72.6*** % | 73.4*** % | 29.0% | 52% | 45% and 44.9*** % | 45% and 44.4*** % | no toxicity | up to 68% | 67.9** % | 63.1** % | 75 µM | 10.9
CCCCCCCCCCCCN(C)CC(O)CS(=O)(=O)O (centres unmarked) [Compound 1c, 2-hydroxy-3-(N-methyldodecylammonio)propanesulfonate] | 58.1** % | 68.5*** % | 42.7^§ % |  |  |  |  |  |  |  | 200 µM | 48.8
